System: Bombyx mori
Assay: Insecticidal activity against third instar larvae of silkworm assessed per gm diet
Format: functional

Row | Compound | LD50 [µg]
1 | C=CC(C)(C)N1c2ccccc2[C@]2(O)C[C@@H]3C(=O)N4/C=C\C(C)(C)c5[nH]c6ccccc6c5/C=C\4C(=O)N3[C@H]12 [OKARAMINE A] | 8
2 | CO[C@@H]1[C@]2(O)C(=O)N3/C=C\C(C)(C)c4[nH]c5ccccc5c4/C=C\3C(=O)N2[C@]23[C@H](C)C(C)(C)N2c2ccccc2[C@]13O [OKARAMINE B] | 0.2
3 | CC(C)=CCN1c2ccccc2[C@]2(O)C[C@@H]3C(=O)N4/C=C\C(C)(C)c5[nH]c6ccccc6c5/C=C\4C(=O)N3[C@H]12 [OKARAMINE H] | >100
4 | CC1(C)/C=C\N2C(=O)[C@H]3C[C@@]4(O)c5ccccc5N[C@H]4N3C(=O)/C2=C/c2c1[nH]c1ccccc21 [OKARAMINE I] | >100

Reference: ChEMBL document CHEMBL1158021, “Okaramines H and I, new okaramine congeners, from aspergillus aculeatus” (1999)
